Usually fold induction stands for the ratio of treated to control signal. Low values mean a weak induction, high ones a strong induction.

Counter-ions that a name gives are not always drawn.

This note sets out measurements from patent US8759535B2, “Substituted fused imidazole derivatives, pharmaceutical compositions, and methods of use thereof” (High Point Pharmaceuticals, LLC, priority 2010, dated 2014).

One experiment deals with HMOX1. Description: HMOX1 Protein Assay (immunostaining of HO-1 in NHLF cells, GE InCell 1000). In kind it is cell-based. The settings on record: Homo sapiens, fold change above DMSO treated cells, 3 μM compound (asterisk), 16 h. In short, it runs like this: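 Fold induction of HO-1 over vehicle, normally at 5 μM compound (asterisk marks 3 μM), in 0.8% DMSO medium. Normal human lung fibroblasts were treated 16 h, then paraformaldehyde-fixed, anti-HO-1/Alexa 488 stained with Hoechst, and read by high-content imaging.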
Turning to `C[C@@H](NC(=O)c1ccc2c(c1)nc(Nc1nc3ccc(C(F)(F)F)cc3s1)n2C)C(=O)N1CCN(C)CC1` [Example 470, 1-Methyl-2-(6-trifluoromethyl-benzothiazol-2-ylamino)-1H-benzoimidazole-5-carboxylic acid [(R)-1-methyl-2-(4-methyl-piperazin-1-yl)-2-oxo-ethyl]-amide], the fold induction at 3 µM was 24.5.

In the case of `Cn1c(Nc2nc3ccc(C(F)(F)F)cc3s2)nc2cc(C(=O)NCC(=O)N3CC[C@@H](O)C3)ccc21` [Example 402, 1-Methyl-2-(6-trifluoromethyl-benzothiazol-2-ylamino)-1H-benzoimidazole-5-carboxylic acid [2-((R)-3-hydroxy-pyrrolidin-1-yl)-2-oxo-ethyl]-amide], the fold induction at 3 µM came out at 24.

On to `Cn1c(Nc2nc3ccc(Cl)cc3s2)nc2cc(C(=O)NCCCN)ccc21` [Example 345, 2-(6-Chloro-benzothiazol-2-ylamino)-1-methyl-1H-benzoimidazole-5-carboxylic acid (3-amino-propyl)-amide hydrochloride], for which the fold induction at 3 µM is 26.4.

In the case of `Cn1c(Nc2nc3ccc(Cl)cc3s2)nc2cc(C(=O)NCCN3CCOCC3)ccc21` [Example 340, 2-(6-Chloro-benzothiazol-2-ylamino)-1-methyl-1H-benzoimidazole-5-carboxylic acid (2-morpholin-4-yl-ethyl)-amide], the fold induction at 3 µM stood at 14.4.

`CN1CCN(CCNC(=O)c2ccc3c(c2)nc(Nc2nc4ccc(Cl)cc4s2)n3C)CC1` [Example 338, 2-(6-Chloro-benzothiazol-2-ylamino)-1-methyl-1H-benzoimidazole-5-carboxylic acid [2-(4-methyl-piperazin-1-yl)-ethyl]-amide]: the fold induction at 3 µM turned out to be 13.6.

Consider `Cn1c(Nc2nc3ccc(C(F)(F)F)cc3s2)nc2cc(C(=O)NCCCCO)ccc21` [Example 221, 1-Methyl-2-(6-trifluoromethyl-benzothiazol-2-ylamino)-1H-benzoimidazole-5-carboxylic acid (4-hydroxy-butyl)-amide], for which the fold induction at 3 µM amounted to 26.

On to `CC(O)C(=O)N1CC[C@@H](NC(=O)c2ccc3c(c2)nc(Nc2nc4ccc(Cl)cc4s2)n3C)C1` (stereo in doubt) [Example 295, 2-(6-Chloro-benzothiazol-2-ylamino)-1-methyl-1H-benzoimidazole-5-carboxylic acid [(R)-1-((R)-2-hydroxy-propionyl)-pyrrolidin-3-yl]-amide], for which the fold induction at 3 µM came out at 29.

The same experiment, now with this note: Homo sapiens, fold change above DMSO treated cells, 5 μM compound, 16 h.
`Cn1c(Nc2nc3ccc(Cl)cc3s2)nc2cc(C(=O)NCC(=O)N3CCC(O)C3)ccc21` (stereo not shown) [Example 399, 2-(6-Chloro-benzothiazol-2-ylamino)-1-methyl-1H-benzoimidazole-5-carboxylic acid [2-(3-hydroxy-pyrrolidin-1-yl)-2-oxo-ethyl]-amide] yielded a fold induction at 5 µM of 20.8.

Molecule `CNCC1CCN(C(=O)CNC(=O)c2ccc3c(c2)nc(Nc2nc4ccc(Cl)cc4s2)n3C)CC1` [Example 457, 2-(6-Chloro-benzothiazol-2-ylamino)-1-methyl-1H-benzoimidazole-5-carboxylic acid [2-(4-methylaminomethyl-piperidin-1-yl)-2-oxo-ethyl]-amide hydrochloride] returned a fold induction at 5 µM of 39.9.

In turn, `Cn1c(Nc2nc3ccc(OC(F)(F)F)cc3s2)nc2cc(C(=O)NCCC3CCC(O)CC3)ccc21` (stereo not shown) [Example 253, 1-Methyl-2-(6-trifluoromethoxy-benzothiazol-2-ylamino)-1H-benzoimidazole-5-carboxylic acid [2-(4-hydroxy-cyclohexyl)-ethyl]-amide] displayed a fold induction at 5 µM of 26.6.

Regarding `Cn1c(Nc2nc3ccc(OC(F)(F)F)cc3s2)nc2cc(C(=O)NCC(=O)N3CCC(O)C3)ccc21` (stereo not shown) [Example 398, 1-Methyl-2-(6-trifluoromethoxy-benzothiazol-2-ylamino)-1H-benzoimidazole-5-carboxylic acid [2-(3-hydroxy-pyrrolidin-1-yl)-2-oxo-ethyl]-amide], the fold induction at 5 µM came out at 31.7.

For `CN(C)S(=O)(=O)N1CCN(C(=O)CNC(=O)c2ccc3c(c2)nc(Nc2nc4ccc(Cl)cc4s2)n3C)CC1` [Example 430, 2-(6-Chloro-benzothiazol-2-ylamino)-1-methyl-1H-benzoimidazole-5-carboxylic acid [2-(4-dimethylsulfamoyl-piperazin-1-yl)-2-oxoethyl]-amide], the fold induction at 5 µM came out at 22.7.

On to `Cn1c(Nc2nc3ccc(OC(F)(F)F)cc3s2)nc2cc(C(=O)NCCn3ccnc3)ccc21` [Example 327, 1-Methyl-2-(6-trifluoromethoxy-benzothiazol-2-ylamino)-1H-benzoimidazole-5-carboxylic acid (2-imidazol-1-yl-ethyl)-amide], for which the fold induction at 5 µM stood at 31.9.

The molecule `Cn1c(Nc2nc3ccc(OC(F)(F)F)cc3s2)nc2cc(C(=O)NCCO)ccc21` [Example 10, 1-Methyl-2-(6-trifluoromethoxy-benzothiazol-2-ylamino)-1H-benzoimidazole-5-carboxylic acid (2-hydroxy-ethyl)-amide] showed a fold induction at 5 µM of 19.9.

Regarding `COC(=O)c1cc2nc(Nc3nc4ccc(OC(F)(F)F)cc4s3)n(C)c2cc1F` [Example 40, 6-Fluoro-1-methyl-2-(6-trifluoromethoxy-benzothiazol-2-ylamino)-1H-benzoimidazole-5-carboxylic acid methyl ester], the fold induction at 5 µM was 11.8.

Molecule `Cn1c(Nc2nc3ccc(OC(F)(F)F)cc3s2)nc2cc(C(=O)NCCOCC(C)(C)O)ccc21` [Example 245, 1-Methyl-2-(6-trifluoromethoxy-benzothiazol-2-ylamino)-1H-benzoimidazole-5-carboxylic acid [2-(2-hydroxy-2-methyl-propoxy)-ethyl]-amide] registered a fold induction at 5 µM of 33.1.

Molecule `Cn1c(Nc2nc3ccc(OC(F)(F)F)cc3s2)nc2cc(C(=O)NCC3CN(C(=O)OC(C)(C)C)CCO3)ccc21` (stereo not shown) [Example 55, 2-({[1-Methyl-2-(6-trifluoromethoxy-benzothiazol-2-ylamino)-1H-benzoimidazole-5-carbonyl]-amino}methyl)-morpholine-4-carboxylic acid tert-butyl ester] had a fold induction at 5 µM of 4.5.

As to `Cn1c(Nc2nc3ccc(OC(F)(F)F)cc3s2)nc2cc(C(=O)NCC(=O)N(CCO)CCO)ccc21` [Example 392, 1-Methyl-2-(6-trifluoromethoxy-benzothiazol-2-ylamino)-1H-benzoimidazole-5-carboxylic acid {[bis-(2-hydroxy-ethyl)-carbamoyl]-methyl}-amide], the fold induction at 5 µM was 24.9.

For `Cn1c(Nc2nc3ccc(Cl)cc3s2)nc2cc(C(=O)NCCCCO)ccc21` [Example 220, 2-(6-Chloro-benzothiazol-2-ylamino)-1-methyl-1H-benzoimidazole-5-carboxylic acid (4-hydroxy-butyl)-amide], the fold induction at 5 µM is 61.9.

Turning to `Cn1c(Nc2nc3ccc(OC(F)(F)F)cc3s2)nc2cc(C(=O)NCC(=O)N3CCOCC3)ccc21` [Example 138, 1-Methyl-2-(6-trifluoromethoxy-benzothiazol-2-ylamino)-1H-benzimidazole-5-carboxylic acid (2-morpholin-4-yl-2-oxo-ethyl)-amide], the fold induction at 5 µM was determined as 11.

`CN1CCC(N(C)C(=O)CNC(=O)c2ccc3c(c2)nc(Nc2nc4ccc(Cl)cc4s2)n3C)C1` (stereo not shown) [Example 395, 2-(6-Chloro-benzothiazol-2-ylamino)-1-methyl-1H-benzoimidazole-5-carboxylic acid {[methyl-(1-methyl-pyrrolidin-3-yl)-carbamoyl]-methyl}-amide] registered a fold induction at 5 µM of 72.

Take `CNC(=O)c1ccc2c(c1)nc(Nc1nc3ccc(OC(F)(F)F)cc3s1)n2CCOC` [Example 167, 1-(2-Methoxy-ethyl)-2-(6-trifluoromethoxy-benzothiazol-2-ylamino)-1H-benzoimidazole-5-carboxylic acid methylamide]: the fold induction at 5 µM worked out at 24.2.

Molecule `CCN(CC)c1cc2c(cc1C(=O)NCC(=O)N(C)C)nc(Nc1nc3ccc(OC(F)(F)F)cc3s1)n2C` [Example 361, 6-Diethylamino-1-methyl-2-(6-trifluoromethoxy-benzothiazol-2-ylamino)-1H-benzoimidazole-5-carboxylic acid dimethylcarbamoylmethyl-amide] came in with a fold induction at 5 µM of 28.8.

On to `Cn1c(Nc2nc3ccc(Cl)cc3s2)nc2cc(C(=O)NC3CCN(CCNS(C)(=O)=O)C3)ccc21` (stereo not shown) [Example 300, 2-(6-Chloro-benzothiazol-2-ylamino)-1-methyl-1H-benzoimidazole-5-carboxylic acid [1-(2-methanesulfonylamino-ethyl)-pyrrolidin-3-yl]-amide], for which the fold induction at 5 µM was 26.2.

The molecule `Cn1c(Nc2nc3ccc(OC(F)(F)F)cc3s2)nc2cc(C(=O)NCCNC(=O)OC(C)(C)C)ccc21` [Example 103, (2-{[1-Methyl-2-(6-trifluoromethoxy-benzothiazol-2-ylamino)-1H-benzoimidazole-5-carbonyl]-amino}-ethyl)-carbamic acid tert-butyl ester] registered a fold induction at 5 µM of 9.

In turn, `Cn1c(Nc2nc3ccc(Cl)cc3s2)nc2cc(C(=O)NCC(=O)N3CCC(CO)CC3)ccc21` [Example 442, 2-(6-Chloro-benzothiazol-2-ylamino)-1-methyl-1H-benzoimidazole-5-carboxylic acid [2-(4-hydroxymethyl-piperidin-1-yl)-2-oxo-ethyl]-amide] returned a fold induction at 5 µM of 34.9.

`CCN(CC)c1cc2c(cc1C(=O)NCCN1CCOCC1)nc(Nc1nc3ccc(OC(F)(F)F)cc3s1)n2C` [Example 362, 6-Diethylamino-1-methyl-2-(6-trifluoromethoxy-benzothiazol-2-ylamino)-1H-benzoimidazole-5-carboxylic acid (2-morpholin-4-yl-ethyl)-amide]: the fold induction at 5 µM is 13.

With `CNC(=O)c1ccc2c(c1)nc(Nc1nc3cc(F)c(F)cc3s1)n2C` [Example 86, 2-(5,6-Difluoro-benzothiazol-2-ylamino)-1-methyl-1H-benzoimidazole-5-carboxylic acid methylamide], the fold induction at 5 µM was 9.7.
